In US9617260B2, “Inhibitors of bruton's tyrosine kinase” (Hoffmann-La Roche Inc., priority 2013, dated 2017):
pIC50: −log10 of the molar value.

The compounds below were run against Bruton's Tyrosine Kinase (BTK), inactivated state (Homo sapiens (Human), UniProt Q06187) (assay: Bruton's Tyrosine Kinase (BTK) Inhibition TR-FRET (Time Resolved FRET) competition assay). Conditions: competition with Kinase Tracer 178 for BTK-Eu; plates incubated 18-24 h at 14° C.
Bruton's Tyrosine Kinase (BTK), inactivated state, sequence (Q06187 whole entry): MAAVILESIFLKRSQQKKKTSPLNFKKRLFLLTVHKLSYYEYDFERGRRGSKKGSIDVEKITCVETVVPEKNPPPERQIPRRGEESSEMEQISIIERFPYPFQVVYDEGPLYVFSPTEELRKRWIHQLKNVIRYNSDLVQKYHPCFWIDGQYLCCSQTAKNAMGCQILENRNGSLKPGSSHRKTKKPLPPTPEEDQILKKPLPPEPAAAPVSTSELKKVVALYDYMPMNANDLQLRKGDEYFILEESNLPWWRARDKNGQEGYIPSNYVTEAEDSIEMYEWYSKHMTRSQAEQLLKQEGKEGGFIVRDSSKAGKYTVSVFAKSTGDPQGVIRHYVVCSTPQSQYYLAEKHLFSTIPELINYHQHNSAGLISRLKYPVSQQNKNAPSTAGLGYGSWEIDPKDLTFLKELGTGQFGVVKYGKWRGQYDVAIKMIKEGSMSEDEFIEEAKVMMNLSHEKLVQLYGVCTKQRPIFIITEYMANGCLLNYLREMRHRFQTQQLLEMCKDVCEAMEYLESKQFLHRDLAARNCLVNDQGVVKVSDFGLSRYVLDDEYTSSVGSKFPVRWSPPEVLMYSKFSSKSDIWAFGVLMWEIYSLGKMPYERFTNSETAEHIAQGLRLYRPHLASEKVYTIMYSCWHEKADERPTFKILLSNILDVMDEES
Assay type: binding
Procedure: Bruton's Tyrosine Kinase (BTK) Inhibition TR-FRET (Time Resolved FRET) Assay
This BTK competition assay measures compound potency (IC50) for the inactivated state of Bruton's Tyrosine Kinase using FRET (Förster/Fluoresence Resonance Energy Transfer) technology. The BTK-Eu complex was incubated on ice one hour prior to use at a starting concentration of 50 nM BTK-Bioease™: 10 nM Eu-streptavidin (Perkin-Elmer Catalog #AD0062). The assay buffer consisted of 20 mM HEPES (pH 7.15), 0.1 mM DTT, 10 mM MgCl2, 0.5 mg/ml BSA with 3% Kinase Stabilizer (Fremont Biosolutions, Catalog #STB-K02). After 1 h, the reaction mixture from above was diluted 10 fold in assay buffer to make 5 nM BTK: 1 nM Eu-Streptavidin complex (donor fluorophore). 18 μl of a mixture of 0.11 nM BTK-Eu and 0.11 nM Kinase Tracer 178 (Invitrogen, Catalog #PV5593,) with BTK-Eu alone as no negative control, was then dispensed into 384-well flat bottom plates (Greiner, 784076). Compounds to be tested in assay were prepared as 10× concentrations and serial dilution in half-log increments was performed in DMSO so as to generate 10 point curves. To initiate the FRET reaction, compounds prepared as 10× stock in DMSO was added to the plates and the plates were incubated 18-24 h at 14° C.
After the incubation the plates were read on a BMG Pherastar Fluorescent plate reader (or equivalent) and used to measure the emission energy from the europium donor fluorophore (620 nm emission) and the FRET (665 nm emission). The negative control well values were averaged to obtain the mean minimum. The positive “no inhibitor” control wells were averaged to obtain the mean maximum. Percent of maximal FRET was calculated using following equation: % max FRET=100×[(FSRcmpd−FSRmean min)/(FSRmean max−FSRmean min)]
where FSR=FRET Signal ratio. % Max FRET curves were plotted in Activity Base (Excel) and the IC50 (%), hill slope, z′ and % CV were determined The mean IC50 and standard deviation will be derived from duplicate curves (singlet inhibition curves from two independent dilutions) using Microsoft Excel.
Representative compound data for this assay are listed below in Table II.
`C=CC(=O)N1CCC(c2c[nH]c3ncc(NC(=O)OCc4ccccc4)cc23)CC1` [Compound 31, benzyl N-[3-(1-prop-2-enoylpiperidin-4-yl)-1H-pyrrolo[2,3-b]pyridin-5-yl]carbamate] gave a pIC50 of 9.22. In the case of `C=CC(=O)N1CCC(c2c[nH]c3ncc(NC(=O)OC(C)C)cc23)CC1` [Compound 32, propan-2-yl N-[3-(1-prop-2-enoylpiperidin-4-yl)-1H-pyrrolo[2,3-b]pyridin-5-yl]carbamate], the pIC50 was 7.57. `C=CC(=O)N1C=C(c2c[nH]c3ncc(NC(=O)OCc4ccccc4)cc23)CCC1` [Compound 33, benzyl N-[3-(1-prop-2-enoyl-3,4-dihydro-2H-pyridin-5-yl)-1H-pyrrolo[2,3-b]pyridin-5-yl]carbamate] gave a pIC50 of 9.22. `C=CC(=O)N1CC(O)(c2c[nH]c3ncc(NC(=O)OCc4ccccc4)cc23)C1` [Compound 34, benzyl N-[3-(3-hydroxy-1-prop-2-enoylazetidin-3-yl)-1H-pyrrolo[2,3-b]pyridin-5-yl]carbamate] showed a pIC50 of 8.44.
